Here are results for 25 compounds from US20150353495A1 (PORTOLA PHARMACEUTICALS, INC., priority 2010, published 2015).

pIC50: −log10 of the molar value.

Holding throughout (format): biochemical
In one assay the target is T1, JAK1 (Homo sapiens, UniProt P23458).
T1 construct: 5 μl of catalytic domain recombinant Kinase enzyme+Tyr peptide substrate (Invitrogen, CA); purchased Invitrogen
The assay is described as follows: Z'-LYTE kinase assay JAK1. The protocol: (§1) JAK and TYK2 tyrosine phosphorylation activity is measured using the Z′-LYTE™ Technology developed by Invitrogen Corporation (Carlsbad, Calif.). For JAK1, JAK2 and JAK3 the Z′-LYTE™ Kinase Assay Kit-Tyr6 Peptide (part number PV4122) was used. For TYK2 the Z′-LYTE™ Kinase Assay Kit-Tyr6 Peptide (part number PV3192) was used. The Z′-LYTE™ biochemical assay employs a fluorescence resonance energy transfer (FRET) coupled-enzyme format and is based on the differential sensitivity of phosphorylated and non-phosphorylated peptides to proteolitic cleavage. The assay uses a synthetic peptide substrate that is labelled with a donor fluorophore (coumarin) and an acceptor fluorophore (fluorescein) that make up a FRET pair. In the primary reaction (the Kinase Reaction), the kinase transfers the γ-phosphate of ATP to a single tyrosine residue on the substrate, while the presence of a kinase inhibitor in the primary reaction suppresses phosphorylation. In the secondary reaction (the Development Reaction), a site-specific protease (the Development Reagent) is added. The development buffer quenches the Kinase Reaction, while the protease recognizes and cleaves non-phosphorylated Z′-LYTE™ peptide substrate. Cleavage disrupts FRET between the donor and acceptor fluorophores on the non-phosphoryleted substrate, while uncleaved, phosphorylated substrate maintains FRET.
(§2) To test the ability of candidate molecules to inhibit JAK tyrosine phosphorylation activity, molecules are reconstituted in 100% DMSO and serially diluted 1:10 in polypropylene v-bottom microtiter plates. The candidate molecules are then diluted 1:25 into kinase buffer and 2.5 μl transferred into duplicate wells of a 384 well low volume black microtiter assay plate (Corning, USA). The final DMSO concentration in the assay is 1%. The kinase reaction contains 2.5 μl of a candidate molecule, 5 μl of catalytic domain recombinant Kinase enzyme+Tyr peptide substrate (Invitrogen, CA) and 2.5 μl ATP (Invitrogen, CA). The kinase reaction is allowed to procede for 1 hour at room temperature. The protease reaction is initiated by the addition of 5 μl Development Reagent (Invitrogen, CA). After 1 hour incubation at room temperature the fluorescence is measured using a FlexStation plate reader (Molecular Devices, Sunnyvale, Calif.).

In another assay the target is T2, JAK3 (Homo sapiens, UniProt P52333).
T2 construct: 5 μl of catalytic domain recombinant Kinase enzyme+Tyr peptide substrate (Invitrogen, CA); purchased Invitrogen
T2 sequence (P52333 822-1111 limits assumed): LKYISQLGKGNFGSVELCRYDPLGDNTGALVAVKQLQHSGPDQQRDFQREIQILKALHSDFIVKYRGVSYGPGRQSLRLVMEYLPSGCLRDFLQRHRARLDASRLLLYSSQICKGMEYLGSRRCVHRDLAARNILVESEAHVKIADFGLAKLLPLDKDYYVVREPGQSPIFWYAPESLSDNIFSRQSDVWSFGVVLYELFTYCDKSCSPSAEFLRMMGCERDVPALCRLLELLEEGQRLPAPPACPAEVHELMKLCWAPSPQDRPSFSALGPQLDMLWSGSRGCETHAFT
The assay is described as follows: Z'-LYTE kinase assay JAK3. The protocol:
as §1, §2

The target of the next assay is T3, JAK2 (Homo sapiens, UniProt O60674).
T3 construct: 5 μl of catalytic domain recombinant Kinase enzyme+Tyr peptide substrate (Invitrogen, CA); purchased Invitrogen
T3 sequence (O60674 849-1124 limits assumed): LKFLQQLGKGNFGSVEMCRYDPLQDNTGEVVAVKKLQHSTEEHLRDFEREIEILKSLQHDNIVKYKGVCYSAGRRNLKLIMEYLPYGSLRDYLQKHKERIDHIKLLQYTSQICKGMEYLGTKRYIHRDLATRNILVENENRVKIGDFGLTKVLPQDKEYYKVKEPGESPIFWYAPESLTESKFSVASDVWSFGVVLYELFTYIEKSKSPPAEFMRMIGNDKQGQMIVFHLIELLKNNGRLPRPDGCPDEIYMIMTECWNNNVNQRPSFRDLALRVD
The assay is described as follows: Z'-LYTE kinase assay JAK2. The protocol: as §1, §2

T1 sequence (P23458 875-1153 limits assumed): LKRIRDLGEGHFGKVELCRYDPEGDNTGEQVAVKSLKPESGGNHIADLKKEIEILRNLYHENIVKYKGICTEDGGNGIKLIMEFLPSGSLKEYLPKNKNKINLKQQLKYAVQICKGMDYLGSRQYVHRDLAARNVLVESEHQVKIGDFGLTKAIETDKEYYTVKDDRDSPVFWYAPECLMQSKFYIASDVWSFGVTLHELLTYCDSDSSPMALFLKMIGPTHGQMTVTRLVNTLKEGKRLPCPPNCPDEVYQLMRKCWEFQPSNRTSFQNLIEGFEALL

`CN(C)C(=O)c1cccc(Nc2cc(NCC3CCCC3)c(C(N)=O)cn2)c1` [Example 95, 4-(cyclopentylmethylamino)-6-(3-(dimethylcarbamoyl)phenylamino)nicotinamide]: the figures for the pIC50 on JAK1, at JAK3 and on JAK2 were 6.00 to 7.00, 7.00 to 8.00 and 6.00 to 7.00, respectively.

As to `CN(C)C(=O)c1ccc(Nc2cc(NCC3CCCC3)c(C(N)=O)cn2)cc1` [Example 96, 4-(cyclopentylmethylamino)-6-(4-(dimethylcarbamoyl)phenylamino)nicotinamide], the negative logarithm of the IC50 (pIC50) (commonly −log10 of the IC50, conventionally taken in molar units) against JAK1 is 6.00 to 7.00; at JAK3 it was 7.00 to 8.00; against JAK2, 6.00 to 7.00.

As to `CN(C)S(=O)(=O)c1ccc(Nc2cc(NCC3CCCC3)c(C(N)=O)cn2)cc1` [Example 97, 4-(cyclopentylmethylamino)-6-(4-(N,N-dimethylsulfamoyl)phenylamino)nicotinamide], the values for the pIC50 against JAK1, against JAK3 and on JAK2 were less than 6.00, 6.00 to 7.00 and less than 6.00, respectively.

On to `CN(C)S(=O)(=O)c1ccc(Nc2cc(NCc3cc(F)ccc3F)c(C(N)=O)cn2)cc1` [Example 98, 4-(2,5-difluorobenzylamino)-6-(4-(N,N-dimethylsulfamoyl)phenylamino)nicotinamide], for which the values for the negative-log IC50 (pIC50) at JAK1, against JAK3 and against JAK2 were less than 6.00, 7.00 to 8.00 and 6.00 to 7.00, respectively.

As for `NC(=O)c1cnc(Nc2cccc(C(=O)N3CCC3)c2)cc1NCc1cc(F)ccc1F` [Example 99, 6-(3-(azetidine-1-carbonyl)phenylamino)-4-(2,5-difluorobenzylamino)nicotinamide], the results for the pIC50 on JAK1, on JAK3 and on JAK2 were 6.00 to 7.00, 8.00 to 9.00 and 6.00 to 7.00, respectively.

On to `COc1ccc(Nc2cc(NCc3cccc(F)c3F)c(C(N)=O)cn2)cc1` [Example 101, 4-(2,3-difluorobenzylamino)-6-(4-methoxyphenylamino)nicotinamide], for which the pIC50 at JAK1 was less than 6.00; against JAK3, 7.00 to 8.00; against JAK2, less than 6.00.

With `NC(=O)c1cnc(Nc2ccc(C3CCN(S(=O)(=O)C4CC4)CC3)cc2)cc1NCc1ccccc1F` [Example 113, 6-(4-(1-(cyclopropylsulfonyl)piperidin-4-yl)phenylamino)-4-(2-fluorobenzylamino)nicotinamide], the figures for the negative logarithm of the IC50 (pIC50) against JAK1, against JAK3 and on JAK2 were less than 6.00, 7.00 to 8.00 and less than 6.00, respectively.

In the case of `N#CC1(C(=O)N2CCC(c3ccc(Nc4cc(NCc5ccccc5F)c(C(N)=O)cn4)cc3)CC2)CC1` [Example 118, 6-(4-(1-(1-cyanocyclopropanecarbonyl)piperidin-4-yl)phenylamino)-4-(2-fluorobenzylamino)nicotinamide], the pIC50 against JAK1 was less than 6.00; at JAK3 it was 7.00 to 8.00; against JAK2 it was less than 6.00.

Turning to `NC(=O)c1cnc(Nc2cccc(C3CCNCC3)c2)cc1NCc1ccccc1F` [Example 120, 4-(2-fluorobenzylamino)-6-(3-(piperidin-4-yl)phenylamino)nicotinamide], the negative-log IC50 (pIC50) was 6.00 to 7.00 against JAK1, 8.00 to 9.00 on JAK3 and 7.00 to 8.00 against JAK2.

In the case of `CS(=O)(=O)N1CCC(c2cccc(Nc3cc(NCc4ccccc4F)c(C(N)=O)cn3)c2)CC1` [Example 121, 4-(2-fluorobenzylamino)-6-(3-(1-(methylsulfonyl)piperidin-4-yl)phenylamino)nicotinamide], the negative logarithm of the IC50 (pIC50) was 6.00 to 7.00 against JAK1, 7.00 to 8.00 on JAK3 and 6.00 to 7.00 at JAK2.

On to `CC(=O)N1CCN(c2ccc(Nc3cc(N[C@H]4CC[C@@H](O)CC4)c(C(N)=O)cn3)cc2)CC1` [Example 123, 6-(4-(4-acetylpiperazin-1-yl)phenylamino)-4-((cis)-4-hydroxycyclohexylamino)nicotinamide], for which the pIC50 was 6.00 to 7.00 against JAK1, 7.00 to 8.00 against JAK3 and 6.00 to 7.00 at JAK2.

For the compound `CCC(=O)N1CCN(c2ccc(Nc3cc(NC4(c5ccccc5)CC4)c(C(N)=O)cn3)cc2)CC1` [Example 124, 4-(1-phenylcyclopropylamino)-6-(4-(4-propionylpiperazin-1-yl)phenylamino)nicotinamide], the pIC50 is less than 6.00 at JAK1, 7.00 to 8.00 against JAK3 and 6.00 to 7.00 against JAK2.

For `NC(=O)c1cnc(Nc2ccc(N3CCOCC3)cc2)cc1NC1(c2ccccc2)CC1` [Example 125, 6-(4-morpholinophenylamino)-4-(1-phenylcyclopropylamino)-nicotinamide], the pIC50 against JAK1 is less than 6.00; against JAK3 it was 7.00 to 8.00; on JAK2 it was 6.00 to 7.00.

Regarding `NC(=O)c1cnc(Nc2ccc(CN3CCOCC3)cc2)cc1NC1(c2ccccc2)CC1` [Example 127, 6-(4-(morpholinomethyl)phenylamino)-4-(1-phenylcyclopropylamino)nicotinamide], the values for the negative logarithm of the IC50 (pIC50) against JAK1, at JAK3 and on JAK2 were less than 6.00, 7.00 to 8.00 and 6.00 to 7.00, respectively.

For the compound `NC(=O)c1cnc(Nc2cccc(N3CCOCC3)c2)cc1NC1(c2ccccc2)CC1` [Example 128, 6-(3-morpholinophenylamino)-4-(1-phenylcyclopropylamino)-nicotinamide], the negative logarithm of the IC50 (pIC50) is less than 6.00 at JAK1, 7.00 to 8.00 at JAK3 and less than 6.00 against JAK2.

For `NC(=O)c1cnc(Nc2cccc(CN3CCOCC3)c2)cc1NC1(c2ccccc2)CC1` [Example 129, 6-(3-(morpholinomethyl)phenylamino)-4-(1-phenylcyclopropylamino)nicotinamide], the values for the pIC50 against JAK1, on JAK3 and against JAK2 were less than 6.00, 7.00 to 8.00 and 6.00 to 7.00, respectively.

For `NC(=O)c1cnc(Nc2ccc(N3CCC(F)(F)CC3)cc2)cc1NC1(c2ccccc2)CC1` [Example 131, 6-(4-(4,4-difluoropiperidin-1-yl)phenylamino)-4-(1-phenylcyclopropylamino)nicotinamide], the negative logarithm of the IC50 (pIC50) was less than 6.00 on JAK1, 6.00 to 7.00 on JAK3 and less than 6.00 against JAK2.

As for `NC(=O)c1cnc(Nc2ccc(OCCN3CCCC3)cc2)cc1NC1(c2ccccc2)CC1` [Example 132, 4-(1-phenylcyclopropylamino)-6-(4-(2-(pyrrolidin-1-yl)ethoxy)phenylamino)nicotinamide], the figures for the pIC50 on JAK1, against JAK3 and on JAK2 were less than 6.00, 7.00 to 8.00 and 6.00 to 7.00, respectively.

In the case of `NC(=O)c1cnc(Nc2ccc(OCC(=O)N3CCOCC3)cc2)cc1NC1(c2ccccc2)CC1` [Example 133, 6-(4-(2-morpholino-2-oxoethoxy)phenylamino)-4-(1-phenylcyclopropylamino)nicotinamide], the negative logarithm of the IC50 (pIC50) was less than 6.00 against JAK1, 7.00 to 8.00 on JAK3 and 6.00 to 7.00 against JAK2.

As for `NC(=O)c1cnc(Nc2cccc(OCC(=O)N3CCOCC3)c2)cc1NC1(c2ccccc2)CC1` [Example 134, 6-(3-(2-morpholino-2-oxoethoxy)phenylamino)-4-(1-phenylcyclopropylamino)nicotinamide], the figures for the pIC50 at JAK1, against JAK3 and against JAK2 were less than 6.00, 7.00 to 8.00 and less than 6.00, respectively.

As for `CC(=O)Nc1cccc(Nc2cc(NC3(c4ccccc4)CC3)c(C(N)=O)cn2)c1` [Example 135, 6-(3-acetamidophenylamino)-4-(1-phenylcyclopropylamino)nicotinamide], the results for the pIC50 at JAK1, on JAK3 and on JAK2 were less than 6.00, 6.00 to 7.00 and less than 6.00, respectively.

As for `CN1CCC(C(=O)Nc2cc(Nc3cc(NC4(c5ccccc5)CC4)c(C(N)=O)cn3)ccc2Cl)CC1` [Example 136, 6-(4-chloro-3-(1-methylpiperidine-4-carboxamido)phenylamino)-4-(1-phenylcyclopropylamino)nicotinamide], the pIC50 is less than 6.00 at JAK1, 7.00 to 8.00 at JAK3 and less than 6.00 against JAK2.

Take `NC(=O)c1cnc(Nc2ccc(C3CCOCC3)cc2)cc1NC1CCOCC1` [Example 139, 6-(4-(tetrahydro-2H-pyran-4-yl)phenylamino)-4-(tetrahydro-2H-pyran-4-ylamino)nicotinamide]: the pIC50 is less than 6.00 on JAK1, 6.00 to 7.00 at JAK3 and less than 6.00 at JAK2.

As to `NC(=O)c1cnc(Nc2ccc(C3CCOCC3)cc2)cc1NCC1CCOCC1` [Example 140, 4-((tetrahydro-2H-pyran-4-yl)methylamino)-6-(4-(tetrahydro-2H-pyran-4-yl)phenylamino)nicotinamide], the negative logarithm of the IC50 (pIC50) against JAK1 is less than 6.00; on JAK3 it was 6.00 to 7.00; against JAK2, 6.00 to 7.00.

Turning to `NC(=O)c1cnc(Nc2ccc(C3CCOCC3)cc2)cc1NCC1(O)CCCC1` [Example 141, 4-((1-hydroxycyclopentyl)methylamino)-6-(4-(tetrahydro-2H-pyran-4-yl)phenylamino)nicotinamide], the pIC50 on JAK1 was less than 6.00; against JAK3, 7.00 to 8.00; against JAK2, 6.00 to 7.00.
